Reference: ChEMBL document CHEMBL1201862, “PubChem BioAssay data set” (2004)
The source made the active and inactive calls.

Tests used:
Paired box protein Pax-8 = Paired box protein Pax-8 (Homo sapiens, UniProt Q06710); test: PAX8 transcriptional activity inhibition in RMG-I – RMG-I cells, luciferase, cherry-pick, dose response (AID 687027); type: functional, cell-based;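 also: luciferase reporter driven by Pax8 target thyroperoxidase promoter measured by SteadyGlo luminescence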
Melanocortin receptor 4 = Melanocortin receptor 4 (Homo sapiens, UniProt P32245); test: inhibitors of MC4R cAMP signaling – cell-based, TR-FRET, biased antagonists, dose response (AID 602298); type: functional;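 also: antagonist potency against agonist-stimulated cAMP production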
Melanocortin receptor 4, sequence (P32245 whole entry, the tested form may be a part): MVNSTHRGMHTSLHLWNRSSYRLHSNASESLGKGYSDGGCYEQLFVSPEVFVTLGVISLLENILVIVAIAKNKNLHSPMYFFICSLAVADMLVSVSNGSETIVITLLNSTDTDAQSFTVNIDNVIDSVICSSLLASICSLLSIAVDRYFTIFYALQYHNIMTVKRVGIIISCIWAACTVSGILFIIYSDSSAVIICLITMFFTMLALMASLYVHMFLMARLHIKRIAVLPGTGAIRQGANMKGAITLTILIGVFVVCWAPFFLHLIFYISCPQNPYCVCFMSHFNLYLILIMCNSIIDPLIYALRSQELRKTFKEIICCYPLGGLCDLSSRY

[1] = blockers of HIV-1 ZM109 envelope-driven cell-cell fusion – HeLa effector, CEM target cells, luciferase, cherry-pick, dose response (AID 652058); type: functional, cell-based;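 also: luciferase signal from HIV-1 Env mediated cell-cell fusion of effector and target cells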
[2] = molecular target: T1, Sphingosine 1-phosphate receptor 4 (Homo sapiens, UniProt O95977); test: Fluorescence dose response cell-based high throughput screening assay for antagonists of the Sphingosine 1-Phosphate Receptor 4 (S1P4). [Related pubchem assays: 1524 (Confirmation in triplicates.), 1510 (Primary screen.)]; type: functional
T1 sequence (O95977 whole entry): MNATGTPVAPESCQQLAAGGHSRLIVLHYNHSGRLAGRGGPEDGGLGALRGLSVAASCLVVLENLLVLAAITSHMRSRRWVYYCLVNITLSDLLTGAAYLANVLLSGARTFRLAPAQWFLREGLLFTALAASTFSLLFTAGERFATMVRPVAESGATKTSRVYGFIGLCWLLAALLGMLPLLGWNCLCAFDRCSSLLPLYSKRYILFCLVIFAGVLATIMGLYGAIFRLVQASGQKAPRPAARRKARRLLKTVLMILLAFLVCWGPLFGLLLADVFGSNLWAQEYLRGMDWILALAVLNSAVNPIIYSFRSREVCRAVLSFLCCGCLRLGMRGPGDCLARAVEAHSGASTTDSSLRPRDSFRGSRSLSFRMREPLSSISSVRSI

[3] = molecular target: Sphingosine 1-phosphate receptor 1 (Homo sapiens, UniProt P21453); type: functional;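 also: Tango beta-arrestin reporter U2OS cells stimulated with S1P near its EC80; inhibitor potency meaning antagonism of receptor activation by the natural agonist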
Sphingosine 1-phosphate receptor 1, sequence (P21453 whole entry): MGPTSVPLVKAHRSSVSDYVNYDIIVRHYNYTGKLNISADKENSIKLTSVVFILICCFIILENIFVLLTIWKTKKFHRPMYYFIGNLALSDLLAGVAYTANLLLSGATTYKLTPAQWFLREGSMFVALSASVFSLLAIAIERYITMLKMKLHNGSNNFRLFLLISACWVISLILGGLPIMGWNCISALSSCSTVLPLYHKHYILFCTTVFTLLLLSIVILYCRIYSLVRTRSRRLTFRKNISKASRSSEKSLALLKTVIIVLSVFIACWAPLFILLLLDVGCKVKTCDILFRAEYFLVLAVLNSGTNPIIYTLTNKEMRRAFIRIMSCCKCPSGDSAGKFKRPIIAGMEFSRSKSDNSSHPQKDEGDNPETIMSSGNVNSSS

[4] = molecular target: Dual specificity tyrosine-phosphorylation-regulated kinase 1A (Rattus norvegicus, UniProt Q63470); type: biochemical, Homo sapiens
[5] = HIV-1 AD8 envelope cell-cell fusion blockers – cherry-pick, dose response (AID 652062); type: functional, cell-based;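 also: luciferase signal from cell-cell fusion driven by HIV-1 clade B AD8 Env; potency is for inhibitors of fusion seen as a drop in luminescence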
Galanin receptor type 3 = Galanin receptor type 3 (Homo sapiens, UniProt O60755); test: Fluorescence-based cell-based primary high throughput dose response assay to identify antagonists of the Galanin Receptor 3 (GalR3).; type: functional
Galanin receptor type 3, sequence (O60755 whole entry): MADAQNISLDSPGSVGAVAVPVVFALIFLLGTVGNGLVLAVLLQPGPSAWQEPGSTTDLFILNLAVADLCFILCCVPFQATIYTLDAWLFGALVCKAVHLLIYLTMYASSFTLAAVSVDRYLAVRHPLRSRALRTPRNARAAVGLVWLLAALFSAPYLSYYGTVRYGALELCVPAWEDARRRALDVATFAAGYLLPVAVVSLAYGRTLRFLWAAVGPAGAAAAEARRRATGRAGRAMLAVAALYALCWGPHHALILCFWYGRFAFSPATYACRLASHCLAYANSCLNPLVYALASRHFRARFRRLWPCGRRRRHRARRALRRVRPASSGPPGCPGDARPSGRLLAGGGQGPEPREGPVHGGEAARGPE

[6] = molecular target: T2, Polyadenylate-binding protein 1 (Homo sapiens, UniProt P11940); test: MLLE binding blockers, Cy5 peptide tracer – biochemical, fluorescence polarization, Cy5-PAM2 peptide, secondary, miRNA deadenylation inhibitor project, dose response (AID 602260); type: functional; conditions: read-out: IC50_Mean
T2 sequence (P11940 whole entry): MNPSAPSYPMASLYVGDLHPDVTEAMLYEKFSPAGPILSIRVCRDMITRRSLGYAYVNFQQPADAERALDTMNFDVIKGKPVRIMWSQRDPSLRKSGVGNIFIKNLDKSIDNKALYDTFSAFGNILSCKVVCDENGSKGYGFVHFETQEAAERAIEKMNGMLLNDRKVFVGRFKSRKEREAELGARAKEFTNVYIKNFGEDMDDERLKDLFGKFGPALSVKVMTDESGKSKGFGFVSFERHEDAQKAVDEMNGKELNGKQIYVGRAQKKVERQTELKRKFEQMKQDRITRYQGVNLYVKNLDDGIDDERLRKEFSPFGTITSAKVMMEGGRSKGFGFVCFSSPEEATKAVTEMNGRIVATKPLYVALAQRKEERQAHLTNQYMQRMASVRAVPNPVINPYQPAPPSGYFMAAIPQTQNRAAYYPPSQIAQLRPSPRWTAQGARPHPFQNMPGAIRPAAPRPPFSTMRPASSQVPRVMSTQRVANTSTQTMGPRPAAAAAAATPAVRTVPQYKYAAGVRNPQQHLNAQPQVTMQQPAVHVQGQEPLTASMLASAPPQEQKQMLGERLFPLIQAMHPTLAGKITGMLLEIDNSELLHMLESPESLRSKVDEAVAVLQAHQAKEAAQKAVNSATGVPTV

cells = type: functional, cell-based; conditions: HEK-CNG
[7] = molecular target: T2, Polyadenylate-binding protein 1; test: MLLE domain peptide-binding blockers, IC50 – biochemical, fluorescence polarization, FITC-PAM2 peptide, dose response (AID 602259); type: functional; conditions: read-out: IC50_Mean
[8] = blockers of HIV-1 envelope-mediated cell-cell fusion – cherry-pick, dose response (AID 652057); type: functional, cell-based
[9] = cAMP pathway inhibition in counterscreen cell line – TR-FRET cAMP detection, counter-screen for MC4R biased antagonist project, dose response (AID 602305); type: functional, cell-based;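 also: U2OS cells stimulated with forskolin near its EC80 as the cAMP inducer; potency is for inhibition of forskolin-stimulated cAMP signaling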
[10] = off-target signal loss in HeLa-CEM21 co-culture – HeLa F-luc CTL cells, cherry-picked, counter-screen for HIV-1 Env fusion inhibitor project, dose response (AID 652040); type: functional, cell-based;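 also: potency for signal decrease marking cytotoxic or nonspecific inhibition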
[11] = viability loss in CEM21 cells – cell-based, CellTiter-Glo luminescence, cherry-picked, cytotoxicity control for viral fusion inhibitor project, dose response (AID 652042); type: functional;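 also: potency for signal decrease meaning cytotoxicity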
Beta-galactosidase = Beta-galactosidase (Escherichia coli, UniProt Q8VNN2); test: Dose response counterscreen for EBI2 assay utilizing the enzyme, b-galactosidase.; type: functional
Beta-galactosidase, sequence (Q8VNN2 whole entry): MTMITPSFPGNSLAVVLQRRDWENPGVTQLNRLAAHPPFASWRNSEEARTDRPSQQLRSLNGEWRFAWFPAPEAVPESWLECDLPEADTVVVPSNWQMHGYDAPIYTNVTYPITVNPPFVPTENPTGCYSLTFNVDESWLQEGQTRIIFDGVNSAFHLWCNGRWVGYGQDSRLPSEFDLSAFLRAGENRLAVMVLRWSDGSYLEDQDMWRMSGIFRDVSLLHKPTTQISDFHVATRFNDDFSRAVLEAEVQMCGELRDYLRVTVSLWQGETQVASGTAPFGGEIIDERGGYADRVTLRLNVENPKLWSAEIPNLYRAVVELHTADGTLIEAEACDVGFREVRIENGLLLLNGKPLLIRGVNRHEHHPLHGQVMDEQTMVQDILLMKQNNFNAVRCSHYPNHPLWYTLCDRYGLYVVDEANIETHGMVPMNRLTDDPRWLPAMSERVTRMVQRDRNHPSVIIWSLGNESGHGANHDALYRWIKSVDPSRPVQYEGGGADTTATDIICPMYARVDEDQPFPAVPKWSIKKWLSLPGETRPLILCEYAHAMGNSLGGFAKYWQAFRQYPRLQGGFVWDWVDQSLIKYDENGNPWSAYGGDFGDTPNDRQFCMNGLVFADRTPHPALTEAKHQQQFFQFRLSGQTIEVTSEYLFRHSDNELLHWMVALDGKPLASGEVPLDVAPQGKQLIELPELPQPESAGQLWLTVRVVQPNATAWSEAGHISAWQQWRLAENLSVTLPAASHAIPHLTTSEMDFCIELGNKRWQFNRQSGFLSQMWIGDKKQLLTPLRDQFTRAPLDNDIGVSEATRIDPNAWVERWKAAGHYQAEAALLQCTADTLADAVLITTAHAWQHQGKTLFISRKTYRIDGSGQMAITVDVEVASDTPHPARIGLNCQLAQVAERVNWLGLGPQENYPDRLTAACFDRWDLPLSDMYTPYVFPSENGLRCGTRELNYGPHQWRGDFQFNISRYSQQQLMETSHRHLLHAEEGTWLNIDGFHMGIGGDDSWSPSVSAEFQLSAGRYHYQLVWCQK

[12] = Luminescence Cell-Based Dose Confirmation HTS to Identify Activators of 5'UTR Stem-Loop Driven Alpha-Synuclein mRNA Translation in H4 Neuroglioblastoma Cells. [Related pubchem assays: 1829 (Project Summary), 1814 (Primary HTS)]; type: functional
[13] = Luminescence Cell-Based Dose Response HTS to Identify Activators of Luciferase Translation or Activity in H4 […] Cells. [Related pubchem assays: 1829 (Project Summary), 1814 (Primary HTS)]; type: functional
[14] = molecular target: T3, Probable nicotinate-nucleotide adenylyltransferase (Staphylococcus aureus (strain N315), UniProt P65502); type: functional, Staphylococcus aureus subsp. aureus N315;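 as to IC50 Mean: confirmatory dose-response retesting of NadD inhibitor hits first found in an ultra-high-throughput screen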
T3 sequence (P65502 whole entry): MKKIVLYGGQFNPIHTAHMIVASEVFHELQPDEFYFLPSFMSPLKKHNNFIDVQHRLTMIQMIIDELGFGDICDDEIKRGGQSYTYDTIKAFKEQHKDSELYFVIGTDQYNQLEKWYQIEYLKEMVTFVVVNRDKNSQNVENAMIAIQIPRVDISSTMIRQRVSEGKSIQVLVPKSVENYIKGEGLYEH

[15] = molecular target: T3, Probable nicotinate-nucleotide adenylyltransferase; type: functional, Staphylococcus aureus subsp. aureus N315; conditions: read-out: IC50_Mean
H4 = test: Luminescence Cell-Based Dose Response HTS to Identify Activators of 5'UTR Stem-Loop Driven Prion Protein mRNA Translation in H4 Neuroglioblastoma Cells. [Related pubchem assays: 1829 (Project Summary), 1814 (Primary HTS)]; type: functional; conditions: Homo sapiens
[16] = molecular target: Fructose-bisphosphate aldolase (Mycobacterium tuberculosis, UniProt P9WQA3); test: Fluorescence-based biochemical high throughput dose response assay for inhibitors of the fructose-bisphosphate aldolase (FBA) of M. tuberculosis.; type: functional
Fructose-bisphosphate aldolase, sequence (P9WQA3 whole entry): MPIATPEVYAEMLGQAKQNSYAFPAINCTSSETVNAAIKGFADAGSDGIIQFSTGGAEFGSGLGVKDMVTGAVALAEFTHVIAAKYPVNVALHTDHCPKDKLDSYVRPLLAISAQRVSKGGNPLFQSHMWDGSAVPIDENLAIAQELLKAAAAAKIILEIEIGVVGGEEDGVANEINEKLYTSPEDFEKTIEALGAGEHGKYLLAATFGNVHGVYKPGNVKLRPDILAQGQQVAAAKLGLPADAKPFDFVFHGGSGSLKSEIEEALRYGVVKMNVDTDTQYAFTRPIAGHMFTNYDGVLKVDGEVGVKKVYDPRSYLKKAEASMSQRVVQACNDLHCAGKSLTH

[17] = potency of ADAM10 substrate cleavage blockers – biochemical, QFRET, dose response (AID 743254);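 also: ADAM10 enzyme with the DM2 quenched FRET peptide as substrate; EDANS fluorescence gain as the protease cuts the substrate; inhibitor potency against ADAM10 proteolytic activity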
[18] = molecular target: Long-chain-fatty-acid--AMP ligase FadD28 (Mycobacterium tuberculosis, UniProt P9WQ59); test: Fluorescence polarization aasay to screen for inhibitors that compete for the binding of FadD28 to a bisubstrate Measured in Biochemical System Using Plate Reader - 2147-01_Inhibitor_Dose_CherryPick_Activity.; type: functional, Mycobacterium tuberculosis H37Rv
Long-chain-fatty-acid--AMP ligase FadD28, sequence (P9WQ59 whole entry, the tested form may be a part): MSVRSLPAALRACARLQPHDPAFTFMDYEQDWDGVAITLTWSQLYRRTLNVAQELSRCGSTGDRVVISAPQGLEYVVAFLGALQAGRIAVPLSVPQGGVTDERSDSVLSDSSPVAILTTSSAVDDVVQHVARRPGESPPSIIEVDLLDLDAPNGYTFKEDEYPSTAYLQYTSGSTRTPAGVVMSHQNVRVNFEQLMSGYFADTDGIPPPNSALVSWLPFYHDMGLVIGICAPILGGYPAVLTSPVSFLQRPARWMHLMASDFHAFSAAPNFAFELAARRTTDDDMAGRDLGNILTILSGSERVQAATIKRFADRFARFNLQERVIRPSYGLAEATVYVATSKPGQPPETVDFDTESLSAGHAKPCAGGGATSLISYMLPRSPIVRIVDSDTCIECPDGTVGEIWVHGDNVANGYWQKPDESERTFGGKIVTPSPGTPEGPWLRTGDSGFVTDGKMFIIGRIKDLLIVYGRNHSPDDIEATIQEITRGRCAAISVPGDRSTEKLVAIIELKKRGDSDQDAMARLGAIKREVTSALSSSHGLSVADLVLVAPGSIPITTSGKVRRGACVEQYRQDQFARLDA

[19] = molecular target: T4, Oxysterols receptor LXR-beta (Homo sapiens, UniProt P55055); type: functional, cell-based;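 also: agonist activity at LXR measured by a cell-based luminescence readout across a dose range, run as a counterscreen for daf-12 agonists; HEK293 cells with Gal4-LXR fusion and GAL4-driven luciferase reporter; potency for activation of Gal4-LXR reporter so compounds are agonists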
T4 sequence (P55055 whole entry): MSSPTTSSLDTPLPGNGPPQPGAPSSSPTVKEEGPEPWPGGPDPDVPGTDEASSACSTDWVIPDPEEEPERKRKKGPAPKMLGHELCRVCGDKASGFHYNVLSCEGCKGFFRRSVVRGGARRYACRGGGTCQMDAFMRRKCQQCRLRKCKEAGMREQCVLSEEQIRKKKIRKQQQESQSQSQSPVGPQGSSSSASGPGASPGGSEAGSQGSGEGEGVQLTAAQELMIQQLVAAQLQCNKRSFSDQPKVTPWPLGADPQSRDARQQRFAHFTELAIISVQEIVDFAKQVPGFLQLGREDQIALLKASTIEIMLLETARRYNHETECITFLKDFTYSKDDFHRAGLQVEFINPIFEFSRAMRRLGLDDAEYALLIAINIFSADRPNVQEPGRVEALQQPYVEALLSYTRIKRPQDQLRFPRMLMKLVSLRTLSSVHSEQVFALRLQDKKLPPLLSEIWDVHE

[20] = viability loss in HepG2 hepatoma cells – cell-based, ATP luminescence, cherry-pick, activator set 2, cytotoxicity control, dose response (AID 1053143); type: functional
Nonstructural protein 1 = Nonstructural protein 1 (Influenza A virus, UniProt Q194T2); type: functional, Influenza A virus (A/California/07/2009(H1N1))
Nonstructural protein 1, sequence (Q194T2 whole entry): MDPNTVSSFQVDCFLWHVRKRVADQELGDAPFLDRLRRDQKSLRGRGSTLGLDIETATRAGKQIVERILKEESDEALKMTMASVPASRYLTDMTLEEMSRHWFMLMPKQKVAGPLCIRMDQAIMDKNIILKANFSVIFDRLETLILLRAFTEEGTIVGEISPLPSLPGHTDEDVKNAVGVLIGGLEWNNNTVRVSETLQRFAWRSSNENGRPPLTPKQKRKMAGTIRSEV

[21] = molecular target: T5, Heat shock factor protein 1 (Mus musculus, UniProt P38532); test: decrease of HSF1-responsive luciferase luminescence – cell-based, NIH3T3, dose retest, confirmation (AID 2382); type: functional;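 also: NIH3T3 fibroblasts with HSF1-driven luciferase reporter stressed by proteasome inhibitor MG132; luminescence from HSF1-driven luciferase expression after 8 hours of MG132 stress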
T5 sequence (P38532 whole entry): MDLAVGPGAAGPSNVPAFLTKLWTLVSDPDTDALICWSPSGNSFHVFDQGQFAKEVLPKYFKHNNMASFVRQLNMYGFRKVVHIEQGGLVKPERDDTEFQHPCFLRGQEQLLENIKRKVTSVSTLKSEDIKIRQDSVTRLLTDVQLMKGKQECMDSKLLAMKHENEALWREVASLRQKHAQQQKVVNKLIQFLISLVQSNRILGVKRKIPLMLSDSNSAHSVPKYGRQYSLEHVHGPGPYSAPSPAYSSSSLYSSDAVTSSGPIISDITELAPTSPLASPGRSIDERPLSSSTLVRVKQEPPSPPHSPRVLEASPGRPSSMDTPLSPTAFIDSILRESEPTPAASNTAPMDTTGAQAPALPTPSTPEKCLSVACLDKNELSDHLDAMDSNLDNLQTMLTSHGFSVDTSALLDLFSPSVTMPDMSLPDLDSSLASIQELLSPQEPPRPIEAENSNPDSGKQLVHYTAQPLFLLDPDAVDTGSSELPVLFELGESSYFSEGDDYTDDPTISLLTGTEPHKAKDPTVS

[22] = bead-based luminescence quenchers, dual-tagged ARNT – biochemical, AlphaScreen, cherry-pick, artefact control for ARNT-TACC3 interaction inhibitor project, dose response (AID 651705); type: functional;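 also: AlphaScreen bead proximity signal that flags compounds interfering with the detection technology; potency reflects signal decrease which marks the compound as an assay artifact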

Paired box protein Pax-8, sequence (Q06710 whole entry): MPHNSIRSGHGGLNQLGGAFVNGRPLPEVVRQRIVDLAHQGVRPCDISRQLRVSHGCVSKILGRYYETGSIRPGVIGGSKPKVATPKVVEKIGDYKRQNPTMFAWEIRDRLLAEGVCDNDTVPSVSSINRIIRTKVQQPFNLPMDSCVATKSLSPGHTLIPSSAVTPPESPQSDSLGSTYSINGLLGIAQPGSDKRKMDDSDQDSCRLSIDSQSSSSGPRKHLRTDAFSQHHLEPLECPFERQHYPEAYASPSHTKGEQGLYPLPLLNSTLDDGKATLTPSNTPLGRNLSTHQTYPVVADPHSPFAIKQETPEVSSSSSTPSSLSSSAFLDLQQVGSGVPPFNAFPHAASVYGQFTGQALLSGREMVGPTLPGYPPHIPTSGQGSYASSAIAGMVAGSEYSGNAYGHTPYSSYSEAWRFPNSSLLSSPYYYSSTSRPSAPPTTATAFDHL

NC(=S)c1cn([C@@H]2O[C@H](CO)[C@@H](O)[C@H]2O)c2ncnc(N)c12
AC50 (Paired box protein Pax-8): 0.294 µM (active)
IC50 (Melanocortin receptor 4): > 64.6 µM (inactive)
AC50 [1]: < 0.26 µM (active)
IC50 [2]: 0.42 µM (active)
IC50 [3]: 1.96 µM (active)
AC50 [4]: 0.158 µM (active)
AC50 [5]: < 0.26 µM (active)
IC50 (Galanin receptor type 3): 1.01 µM (active)
IC50 [6]: > 66 µM (inactive)
EC50 (cells): > 29.9 µM (inactive)
IC50 [7]: > 66 µM (inactive)
AC50 [8]: < 0.26 µM (active)
IC50 [9]: > 64.6 µM (inactive)
AC50 [10]: < 0.26 µM (active)
AC50 [11]: 0.344 µM (active)

COc1ccc(OCC(=O)Nc2ccc(N3CCOCC3)cc2)cc1
IC50 (Beta-galactosidase): > 80 µM (inactive)

Cc1ccc(Nc2nc(Nc3ccc(C)cc3)nc(SC3=NCCS3)n2)cc1
EC50 [12]: > 120 µM (not active)
EC50 [13]: > 120 µM (not active)
IC50 [14]: 28.6 µM (active)
IC50 [15]: 53.6 µM (active)
EC50 (H4): 17.6 µM (active)

COc1ccc(CNCc2ccc(OC)c3ccccc23)cc1
IC50 [16]: > 10 µM (inactive)

Cc1ccc(C(=O)Nc2nnc(N=C(S)Nc3ccccc3)s2)cc1
IC50 [17]: > 69.5 µM (inactive)

COc1ccc(/C=C2\SC(=O)N(CC(=O)Nc3cccc(C)c3)C2=O)cc1O
AC50 [18]: 1.47 µM (active)

COc1cccc(-c2nc(-c3ccc(Br)o3)no2)c1
EC50 [19]: > 67.5 µM (inactive)
AC50 [20]: > 52 µM (inactive)

CCOC(=O)c1cnc(SCCc2ccccc2)nc1N
EC50 [19]: > 67.5 µM (inactive)

O=C(NCCCn1ccnc1)C(=O)NCC1OCCN1S(=O)(=O)c1cc(F)ccc1F (stereo not given)
IC50 (Nonstructural protein 1): 12.7 µM (active)
EC50 [21]: 128 µM (active)
AC50 [22]: 84.5 µM (active)
